Measurements taken from patent US8501683B2, “Cycloundecadepsipeptide compounds and use of said compounds as a medicament” (priority 2008, dated 2013).
Square brackets hold non-standard residues; d marks the D form. Peptide text beside a SMILES is read from it. MeBmt = C/C=C/C[C@@H](C)[C@@H](O)[C@H](NC)C(=O)O; NEtVal = CCN[C@H](C(=O)O)C(C)C; NMeL = CN[C@@H](CC(C)C)C(=O)O; NMeV = CN[C@H](C(=O)O)C(C)C; dHiv = CC(C)[C@@H](O)C(=O)O; NMeA = CN[C@@H](C)C(=O)O; dNMeA = CN[C@H](C)C(=O)O; Abu = CC[C@H](N)C(=O)O

Key:
[1] = biological target: organic anion transporting polypeptide 1B1 (OATP1B1) (Homo sapiens, UniProt Q9Y6L6)
Chain of organic anion transporting polypeptide 1B1 (OATP1B1) (Q9Y6L6 whole entry): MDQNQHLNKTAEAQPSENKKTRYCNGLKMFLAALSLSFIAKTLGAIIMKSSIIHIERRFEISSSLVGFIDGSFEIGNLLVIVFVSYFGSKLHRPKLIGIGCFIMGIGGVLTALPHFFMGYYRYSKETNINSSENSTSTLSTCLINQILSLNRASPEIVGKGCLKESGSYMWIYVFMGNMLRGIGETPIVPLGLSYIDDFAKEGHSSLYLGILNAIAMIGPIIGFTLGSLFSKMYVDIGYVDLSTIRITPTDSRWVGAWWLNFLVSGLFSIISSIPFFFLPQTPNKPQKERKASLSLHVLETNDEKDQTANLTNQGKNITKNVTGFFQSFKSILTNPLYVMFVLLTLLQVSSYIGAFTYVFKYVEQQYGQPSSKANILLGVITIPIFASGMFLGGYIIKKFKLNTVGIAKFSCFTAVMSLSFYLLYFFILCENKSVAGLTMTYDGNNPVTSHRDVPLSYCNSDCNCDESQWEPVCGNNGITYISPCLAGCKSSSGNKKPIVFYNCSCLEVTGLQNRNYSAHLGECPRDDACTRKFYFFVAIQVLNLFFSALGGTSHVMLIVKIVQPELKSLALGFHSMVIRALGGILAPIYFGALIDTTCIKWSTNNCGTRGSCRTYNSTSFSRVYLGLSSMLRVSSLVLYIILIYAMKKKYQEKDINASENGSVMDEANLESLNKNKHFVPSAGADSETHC
Experimental: (§1) To determine whether the cycloundecadepsipeptide compounds of the present invention interact with hepatic transporters, experiments were carried out that compared the concentration-dependent inhibition towards the multidrug resistance associated protein 2 (MRP2), the organic anion transporting polypeptide 1B1 (OATP1B1), the bile salt export pump (BSEP) and the sodium-taurocholate cotransporting polypeptide (NTCP). These transporters are involved in the hepatobiliary circulation of endogenous compounds such as bile salts or bilirubin (for a review, see C. Pauli-Magnus et al, J. Hepatology, 2005, 43:342-357). Some of them also contribute to the elimination of xenobiotics.
OATP1B1 and NTCP assays were performed with Chinese hamster ovary (CHO) cells expressing these human uptake transporters. The amount of the transported probe substrate (estrone-3-sulfate and taurocholate for OATP1B1 and NTCP, respectively) was determined by liquid scintillation or fluorescent photometry after cell lysis.
(§2) The IC50 (defined as the concentration required for inhibiting the transport of the probe substrate by 50%, half maximal inhibitory concentration) of the compounds was derived from the concentration-response curve and compared to the IC50 of Debio 025 (IC50 ratio expressed as “fold Debio 025” in the tables).

[2] = tested on: hepatitis C virus genotype 1b Con1 replicon; assay: HCV replicon assay, replicon RNA by RT-qPCR in Huh 9-13 cells; type: cell-based; conditions: 50% inhibition of HCV replicon replication, 3 dose-response curves
Experimental: For the evaluation of antiviral effects, assay medium was aspirated and the plates with dry monolayer were stored at −80° C. awaiting extraction. Following thawing of the plates at room temperature, the cell monolayer was lysed with 100 μl of cell-to-cDNA lysis buffer (Invitrogen). Lysis of the cells was allowed to proceed for 10 min at room temperature after which all liquid was transferred to a PCR plate (Axygen). The PCR plate was incubated for 15 min at 75° C. […] The lysate was diluted 1:2 with RNase/DNase-free water, after which 5 μl was transferred to the real-time PCR plate (Applied Biosystems).
Replicon RNA content was quantified using a real-time quantitative one-step RT-PCR method (RT-qPCR): Low Rox One-Step RT-qPCR master mix, Abgene). […] The fluorogenic probe was 5′-[sequence]-3′. The analysis of the samples were performed using a SDS7500F (Applied Biosystems, standard thermocycling profile: 30 min at 48° C., 10 min at 95° C., 40 cycles of 15 sec at 95° C. and 1 min at 60° C.) after which replicon RNA quantities were converted to percentage of untreated controls.

[3] = biological target: T1, sodium-taurocholate cotransporting polypeptide (NTCP) (Homo sapiens, UniProt Q14973); assay: NTCP inhibition, taurocholate uptake in CHO cells; type: in vitro ADME; conditions: for NTCP fold Debio 025: IC50 ratio compared to Debio 025; for IC50 / NTCP IC50: probe taurocholate, CHO cells
T1 sequence (Q14973 1-349): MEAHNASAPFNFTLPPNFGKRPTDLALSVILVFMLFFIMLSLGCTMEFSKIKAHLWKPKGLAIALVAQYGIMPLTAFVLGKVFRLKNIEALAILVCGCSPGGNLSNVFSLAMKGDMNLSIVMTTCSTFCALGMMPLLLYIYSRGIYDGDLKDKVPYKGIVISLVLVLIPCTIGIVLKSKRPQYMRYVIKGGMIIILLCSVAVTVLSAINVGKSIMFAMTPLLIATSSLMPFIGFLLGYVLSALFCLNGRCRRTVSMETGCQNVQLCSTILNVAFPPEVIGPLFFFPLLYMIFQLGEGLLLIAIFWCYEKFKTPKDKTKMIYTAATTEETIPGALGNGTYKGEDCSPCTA

[4] = Cytostatic/cytotoxic effect, MTT (MTS) assay in Huh 9-13 cells; type: cell-based; conditions: human, Huh 9-13 cells containing the HCV genotype 1b Con1 replicon, metabolic activity reduced to 50% of untreated cells
Description: Assays used Huh 9-13 containing the hepatitis C virus genotype 1b Con1 replicon (Lohmann et al. 2001. J. Virol. 75:1437-1449; and Lohmann et al. 1999. Science. 285:110-113). Cells were sub-cultured in cell growth medium DMEM supplemented with 10% FCS, 1% non-essential amino acids, 1% penicillin/streptomycin and 2% Geneticin (Invitrogen) at a ratio of 1:4-1:5 and grown for 3-4 days in 75 cm^2 tissue culture flasks (Techno Plastic Products), were harvested and seeded in assay medium (DMEM, 10% FCS, 1% non-essential amino acids, 1% penicillin/streptomycin) at a density of 5 000 cells/well (100 μl/well) in 96-well tissue culture microtiter plates (Falcon, Beckton Dickinson) for evaluation of cytostatic/cytotoxic and antiviral effect. The microtiter plates were incubated overnight (37° C., 5% CO2, 95-99% relative humidity), yielding a non-confluent cell monolayer.
Cell density and cytostatic effects were estimated in parallel cultures in regular 96-well plates (Beckton-Dickinson) using the MTT assay (CellTiter 96 AQueous Non-Radioactive Cell Proliferation Assay, Promega). In this assay, 3-(4,5-dimethyl-thiazol-2-yl)-5-(3-carboxymethoxy-phenyl)-2-(4-sulfophenyl)-2H-tetrazolium (MTS) is bioreduced to a formazan that is quantified at 498 nm in a plate reader. Formazan production is directly correlated with number of life cells. Absorbance was measured at a wavelength of 498 nm (Safire^2, Tecan) and optical densities (OD values) were converted to percentage of untreated controls.
The compounds were dissolved in DMSO at a concentration of 4 mmole/L. Stock solutions were immediately used to set up the experiments. The compounds were tested at 24 different concentrations ranging from 0.0001 μmole/L to 100 μmole/L. The highest concentration of DMSO in the assay was determined to be 2.5% (at 100 μM final concentration of the compound). During the assay setup, the DMSO percentage decreased concomitantly with decrease in concentration of the compound.
The EC50 (value derived from the dose-response curve) represents the concentration at which 50% inhibition of viral replication is observed. The CC50 (value derived from the dose-response curve) represents the concentration at which the metabolic activity of the cells is reduced to 50% of the metabolic activity of untreated cells.
Results from these experiments permitted calculation of EC50±SD (standard deviation or Std. Dev.), which is the effective concentration required to inhibit HCV replicon replication by 50%, and of CC50±SD (whenever possible), which is the concentration required that inhibits the proliferation of exponentially growing cells by 50%. EC50 and CC50±SD values were calculated respectively as the median of all the EC50, or CC50 values derived from the 3 individual dose-response curves. The selectivity index (SI), indicative of the therapeutic window of the compound was calculated as the ratio between CC50 and EC50.

[5] = tested on: Concanavalin-A-induced T-cell proliferation; assay: Concanavalin-A-induced T-cell proliferation assay (immunosuppression); type: cell-based; conditions: inhibition of Concanavalin-A-induced T-cell proliferation
Experimental: To determine whether the cycloundecadepsipepide compounds of the present invention have a non-immunosuppression activity, experiments were carried out that compared the dose-dependent inhibition of Concanavalin-A-induced T-cell proliferation (see Table 2).
The method of the assays were performed as described by Dayton et al. (1992. Mol. Pharmacol. 41. 671-676) and Mishell et al. (1980. Cell proliferation in selected methods in cellular immunology, V, XXIX, W.H. Freeman Co., San Francisco, Calif. 153-160).

[6] = biological target: bile salt export pump (BSEP) (Homo sapiens, UniProt O95342); conditions: for BSEP fold Debio 025: IC50 ratio compared to Debio 025
Chain of bile salt export pump (BSEP) (O95342 whole entry): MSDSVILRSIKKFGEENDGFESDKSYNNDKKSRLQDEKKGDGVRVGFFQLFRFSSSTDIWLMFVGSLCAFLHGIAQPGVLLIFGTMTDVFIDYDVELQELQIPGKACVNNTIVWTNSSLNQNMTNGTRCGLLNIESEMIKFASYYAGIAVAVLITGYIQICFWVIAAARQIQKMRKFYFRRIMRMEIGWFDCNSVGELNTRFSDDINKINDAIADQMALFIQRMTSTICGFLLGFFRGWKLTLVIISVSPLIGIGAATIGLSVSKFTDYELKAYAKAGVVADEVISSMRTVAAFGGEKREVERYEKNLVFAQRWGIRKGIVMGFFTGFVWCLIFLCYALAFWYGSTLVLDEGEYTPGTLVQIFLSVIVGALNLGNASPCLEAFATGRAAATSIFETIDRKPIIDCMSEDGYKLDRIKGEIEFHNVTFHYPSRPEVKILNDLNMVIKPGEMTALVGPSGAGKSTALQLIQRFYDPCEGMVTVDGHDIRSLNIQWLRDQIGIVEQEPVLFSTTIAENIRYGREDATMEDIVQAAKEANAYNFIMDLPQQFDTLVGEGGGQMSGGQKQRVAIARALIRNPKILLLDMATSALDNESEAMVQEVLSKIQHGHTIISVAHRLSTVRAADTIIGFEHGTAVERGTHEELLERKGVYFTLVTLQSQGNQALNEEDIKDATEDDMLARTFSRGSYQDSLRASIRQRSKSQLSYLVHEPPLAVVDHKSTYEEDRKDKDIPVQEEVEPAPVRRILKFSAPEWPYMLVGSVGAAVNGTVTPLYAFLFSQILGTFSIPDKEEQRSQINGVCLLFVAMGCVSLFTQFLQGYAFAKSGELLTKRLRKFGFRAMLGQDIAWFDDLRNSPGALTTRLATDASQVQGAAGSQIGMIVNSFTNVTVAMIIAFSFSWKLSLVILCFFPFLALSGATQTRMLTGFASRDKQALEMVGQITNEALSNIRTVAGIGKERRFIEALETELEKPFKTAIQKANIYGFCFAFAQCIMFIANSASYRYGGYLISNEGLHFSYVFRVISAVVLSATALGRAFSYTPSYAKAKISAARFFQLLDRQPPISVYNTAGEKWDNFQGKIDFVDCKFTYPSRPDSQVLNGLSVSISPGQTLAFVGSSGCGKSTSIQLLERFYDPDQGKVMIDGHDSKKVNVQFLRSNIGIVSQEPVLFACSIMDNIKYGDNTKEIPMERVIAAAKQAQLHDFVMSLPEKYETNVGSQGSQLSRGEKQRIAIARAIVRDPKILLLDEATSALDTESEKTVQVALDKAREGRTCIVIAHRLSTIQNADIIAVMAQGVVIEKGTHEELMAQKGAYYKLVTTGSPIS
Experimental: as §1
(§3) MRP2 and BSEP were expressed by SOLVO Biotechnology in Spodoptera frugiperda (Sf9) ovarian cells, by infecting the insect cells with a recombinant baculovirus. The inhibition of the transport of the radioactive probe substrates (estradiol-17-beta-glucuronide and taurocholate for MRP2 and BSEP, respectively) into inside-out membrane vesicles, containing the transporter, was measured by scintillation counting.
as §2

[7] = biological target: multidrug resistance associated protein 2 (MRP2) (Homo sapiens, UniProt Q92887)
Chain of multidrug resistance associated protein 2 (MRP2) (Q92887 whole entry): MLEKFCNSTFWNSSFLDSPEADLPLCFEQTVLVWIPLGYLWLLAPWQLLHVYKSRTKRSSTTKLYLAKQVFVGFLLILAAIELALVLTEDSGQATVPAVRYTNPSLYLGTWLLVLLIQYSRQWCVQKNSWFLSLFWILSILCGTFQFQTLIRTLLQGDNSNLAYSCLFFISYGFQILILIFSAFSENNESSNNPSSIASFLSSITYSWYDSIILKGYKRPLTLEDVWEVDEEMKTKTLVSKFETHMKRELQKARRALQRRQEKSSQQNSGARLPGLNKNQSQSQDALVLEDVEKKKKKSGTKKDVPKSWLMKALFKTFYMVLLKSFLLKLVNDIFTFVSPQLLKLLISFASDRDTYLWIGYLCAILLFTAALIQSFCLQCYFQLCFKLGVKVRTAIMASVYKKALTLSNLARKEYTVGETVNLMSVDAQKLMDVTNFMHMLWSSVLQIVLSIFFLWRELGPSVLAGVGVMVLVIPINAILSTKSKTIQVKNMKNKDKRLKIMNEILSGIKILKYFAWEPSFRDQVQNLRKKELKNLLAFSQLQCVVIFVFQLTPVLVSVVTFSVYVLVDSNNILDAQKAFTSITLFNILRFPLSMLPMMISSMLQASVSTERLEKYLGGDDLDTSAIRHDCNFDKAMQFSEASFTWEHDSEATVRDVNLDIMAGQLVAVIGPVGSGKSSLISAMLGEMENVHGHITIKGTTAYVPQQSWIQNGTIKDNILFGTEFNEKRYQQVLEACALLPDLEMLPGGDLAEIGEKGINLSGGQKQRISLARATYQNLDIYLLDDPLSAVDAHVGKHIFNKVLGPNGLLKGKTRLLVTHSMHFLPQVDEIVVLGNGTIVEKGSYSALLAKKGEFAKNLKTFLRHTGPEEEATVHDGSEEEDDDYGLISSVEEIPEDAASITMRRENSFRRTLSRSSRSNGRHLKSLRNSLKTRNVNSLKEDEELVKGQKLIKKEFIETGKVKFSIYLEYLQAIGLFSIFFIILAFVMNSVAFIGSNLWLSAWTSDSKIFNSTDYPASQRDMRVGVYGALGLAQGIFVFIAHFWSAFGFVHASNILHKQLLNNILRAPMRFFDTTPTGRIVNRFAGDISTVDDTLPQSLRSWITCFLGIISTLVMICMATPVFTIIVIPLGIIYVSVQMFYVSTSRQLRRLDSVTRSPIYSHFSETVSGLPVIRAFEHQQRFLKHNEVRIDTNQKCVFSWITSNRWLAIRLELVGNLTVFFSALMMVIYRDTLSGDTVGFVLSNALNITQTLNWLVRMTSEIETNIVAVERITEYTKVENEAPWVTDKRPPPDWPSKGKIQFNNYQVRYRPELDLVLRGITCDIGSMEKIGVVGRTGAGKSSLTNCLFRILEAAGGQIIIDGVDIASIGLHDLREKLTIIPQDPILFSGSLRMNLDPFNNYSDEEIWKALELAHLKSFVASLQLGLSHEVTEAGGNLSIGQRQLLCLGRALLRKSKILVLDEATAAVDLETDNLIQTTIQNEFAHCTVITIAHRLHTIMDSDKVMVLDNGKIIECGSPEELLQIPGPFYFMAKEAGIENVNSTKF
Experimental: as §1, §3, §2

Compound | IC50 [1] | OATP1B fold Debio 025 [1] | EC50 [2] | NTCP fold Debio 025 [3] | IC50 [3] | CC50 [4] | IC50 [5] | IC50 [6] | BSEP fold Debio 025 [6] | MRP2 IC50 [7] | IC50 [7] | MRP2 fold Debio 025 ([7]; IC50 ratio compared to Debio 025) | NTCP IC50 [3]
C/C=C/C[C@@H](C)[C@@H](O)[C@H]1C(=O)N[C@@H](CC)C(=O)N(C)[C@H](C)C(=O)N(C)[C@@H](C(C)C)C(=O)N[C@@H](CC(C)C)C(=O)N(C)[C@@H](CC(C)C)C(=O)N[C@@H](C)C(=O)O[C@H](C(C)C)C(=O)N(C)[C@@H](CC(C)C)C(=O)N[C@@H](CC(C)C)C(=O)N(C)[C@@H](C(C)C)C(=O)N1C [(Id), cyclo-(MeBmt-Abu-D-MeAla-MeVal-Leu-MeLeu-Ala-D-Hiv-MeLeu-Leu-MeVal)] (cyclo(A[dHiv][NMeL]L[NMeV][MeBmt][Abu][dNMeA][NMeV]L[NMeL])) | 7900 nM | 0.05 | 25 nM | 1.2 | 2500 nM | 44400 nM | 1440 nM | 570 nM | 0.42 | n.i. | – | – | –
C/C=C/C[C@@H](C)[C@@H](O)[C@H]1C(=O)N[C@@H](CC)C(=O)N(C)[C@H](C)C(=O)N(C)[C@@H](C(C)C)C(=O)N[C@@H](C(C)C)C(=O)N(C)[C@@H](C)C(=O)N[C@@H](C)C(=O)O[C@H](C(C)C)C(=O)N(C)[C@@H](CC(C)C)C(=O)N[C@@H](CC(C)C)C(=O)N(C)[C@@H](C(C)C)C(=O)N1C [(Ie), cyclo-(MeBmt-Abu-D-MeAla-MeVal-Val-MeAla-Ala-D-Hiv-MeLeu-Leu-MeVal)] (cyclo(A[dHiv][NMeL]L[NMeV][MeBmt][Abu][dNMeA][NMeV]V[NMeA])) | 580 nM | 0.72 | 70 nM | 0.12 | 26000 nM | 8300 nM | 2000 nM | 600 nM | 0.40 | – | 20000 nM | 0.73 | –
C/C=C/C[C@@H](C)[C@@H](O)[C@H]1C(=O)N[C@@H](C(C)C)C(=O)N(C)[C@H](C)C(=O)N(C)[C@@H](C(C)C)C(=O)N[C@@H](CC(C)C)C(=O)N(C)[C@@H](CC(C)C)C(=O)NCC(=O)O[C@H](C(C)C)C(=O)N(C)[C@@H](CC(C)C)C(=O)N[C@@H](CC(C)C)C(=O)N(C)[C@@H](C(C)C)C(=O)N1C [(If), cyclo-(MeBmt-Val-D-MeAla-MeVal-Leu-MeLeu-Gly-D-Hiv-MeLeu-Leu-MeVal)] (cyclo(G[dHiv][NMeL]L[NMeV][MeBmt]V[dNMeA][NMeV]L[NMeL])) | 15000 nM | 0.03 | 25 nM | – | – | 81800 nM | 7720 nM | 480 nM | 0.50 | n.i. | – | – | n.i.
C/C=C/C[C@@H](C)[C@@H](O)[C@H]1C(=O)N[C@@H](C(C)C)C(=O)N(C)[C@H](C)C(=O)N(CC)[C@@H](C(C)C)C(=O)N[C@@H](CC(C)C)C(=O)N(C)[C@@H](CC(C)C)C(=O)N[C@@H](C)C(=O)O[C@H](C(C)C)C(=O)N(C)[C@@H](CC(C)C)C(=O)N[C@@H](CC(C)C)C(=O)N(C)[C@@H](C(C)C)C(=O)N1C [(Ih), cyclo-(MeBmt-Val-D-MeAla-EtVal-Leu-MeLeu-Ala-D-Hiv-MeLeu-Leu-MeVal)] (cyclo(A[dHiv][NMeL]L[NMeV][MeBmt]V[dNMeA][NEtVal]L[NMeL])) | 12000 nM | 0.04 | 22 nM | – | – | 20500 nM | 1740 nM | 300 nM | 0.80 | n.i. | – | – | n.i.
